# Results from PubChem BioAssay (NCI).
#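 Step 1: Grow cells in 96-well plates. Step 2: Expose to compound for 48 hours at 5 concentrations. Step 3: Interpolate endpoints linearly; if unreached, use highest concentration. GI50 = concentration required for 50% inhibition of growth. TGI: concentration producing complete growth inhibition.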
# Key:
# Assay in all cases: growth of human tumour cells (NCI), 48 h
# [1] = test system: A549 NSCLC
# [2] = test system: UO-31 renal
# [3] = test system: MDA-MB-231 breast
# [4] = test system: SF-295 CNS
# [5] = test system: MCF7 breast
# [6] = test system: UACC-257 melanoma
# [7] = test system: NCI/ADR-RES ovarian
# [8] = test system: A498 renal
# [9] = test system: NCI-H23 lung
# [10] = test system: TK-10 renal
# [11] = test system: M14 melanoma
# [12] = test system: MDA-MB-468 breast
# [13] = test system: HOP-92 NSCLC
# [14] = test system: MDA-MB-435
# [15] = test system: RPMI-8226 leukemia
# [16] = test system: SK-OV-3 ovarian
# [17] = test system: U251 CNS
# [18] = test system: BT-549 breast
# [19] = test system: UACC-62 melanoma
# [20] = test system: HOP-62 NSCLC
# [21] = test system: CCRF-CEM leukemia
# [22] = test system: DU-145 prostate
# [23] = test system: OVCAR-5 ovarian
# [24] = test system: SK-MEL-2 melanoma
# [25] = test system: EKVX NSCLC
# [26] = test system: MOLT-4 leukemia
# [27] = test system: SNB-75 CNS
# [28] = test system: K-562 leukemia
# [29] = test system: SW-620 colon
# [30] = test system: COLO 205 colon
# [31] = test system: SN12C renal
# [32] = test system: IGROV1 ovarian
# [33] = test system: MALME-3M melanoma
# [34] = test system: OVCAR-3 ovarian
# [35] = test system: RXF 393 renal
# [36] = test system: SNB-19 CNS
# [37] = test system: 786-0 renal
# [38] = test system: NCI-H522 lung
# [39] = test system: HCT-116 colon
# [40] = test system: PC-3 prostate
# [41] = test system: NCI-H226 lung
# [42] = test system: OVCAR-8 ovarian
# [43] = test system: SF-268 CNS
# [44] = test system: ACHN renal
# [45] = test system: SK-MEL-28 melanoma
# [46] = test system: HL-60(TB) leukemia
# [47] = test system: SK-MEL-5 melanoma
# [48] = test system: SF-539 CNS
# [49] = test system: HCT-15 colon
# [50] = test system: LOX IMVI melanoma
# [51] = test system: HCC-2998 colon
# [52] = test system: CAKI-1 renal
# [53] = test system: OVCAR-4 ovarian
# [54] = test system: KM12 colon
# [55] = test system: HS 578T breast
structure (smiles),measurement,setting,value
O=C(NN1C(=O)/C(=C/C=C/c2ccc([N+](=O)[O-])o2)SC1=S)c1ccc(O)cc1,GI50,[1],3780 nM
same,TGI,[1],16300 nM
same,GI50,[2],1510 nM
same,TGI,[2],2910 nM
same,GI50,[3],399 nM
same,TGI,[3],1420 nM
same,GI50,[4],2040 nM
same,TGI,[4],4590 nM
same,GI50,[5],1410 nM
same,TGI,[5],3190 nM
same,GI50,[6],1690 nM
same,TGI,[6],3500 nM
same,GI50,[7],2200 nM
same,TGI,[7],5210 nM
same,GI50,[8],18800 nM
same,TGI,[8],32800 nM
same,GI50,[9],1270 nM
same,TGI,[9],2690 nM
same,GI50,[10],1830 nM
same,TGI,[10],3510 nM
same,GI50,[11],316 nM
same,TGI,[11],1350 nM
same,GI50,[12],1720 nM
same,TGI,[12],3580 nM
same,GI50,[13],1630 nM
same,TGI,[13],3690 nM
same,GI50,[14],1130 nM
same,TGI,[14],2510 nM
same,GI50,[15],713 nM
same,TGI,[15],5340 nM
same,GI50,[16],2490 nM
same,TGI,[16],5960 nM
same,GI50,[17],1750 nM
same,TGI,[17],3520 nM
same,GI50,[18],1360 nM
same,TGI,[18],2790 nM
same,GI50,[19],1050 nM
same,TGI,[19],2260 nM
same,GI50,[20],1890 nM
same,TGI,[20],3600 nM
same,GI50,[21],195 nM
same,TGI,[21],1810 nM
same,GI50,[22],2350 nM
same,TGI,[22],5790 nM
same,GI50,[23],1800 nM
same,TGI,[23],3530 nM
same,GI50,[24],1420 nM
same,TGI,[24],2990 nM
same,GI50,[25],1570 nM
same,TGI,[25],3190 nM
same,GI50,[26],> 100000 nM
same,TGI,[26],> 100000 nM
same,GI50,[27],1310 nM
same,TGI,[27],4380 nM
same,GI50,[28],> 100000 nM
same,TGI,[28],> 100000 nM
same,GI50,[29],307 nM
same,TGI,[29],996 nM
same,GI50,[30],1730 nM
same,TGI,[30],3350 nM
same,GI50,[31],344 nM
same,TGI,[31],1630 nM
same,GI50,[32],1460 nM
same,TGI,[32],2820 nM
same,GI50,[33],246 nM
same,TGI,[33],558 nM
same,GI50,[34],1680 nM
same,TGI,[34],3140 nM
same,GI50,[35],1560 nM
same,TGI,[35],2990 nM
same,GI50,[36],1920 nM
same,TGI,[36],3900 nM
same,GI50,[37],1780 nM
same,TGI,[37],3270 nM
same,GI50,[38],217 nM
same,TGI,[38],498 nM
same,GI50,[39],382 nM
same,TGI,[39],1570 nM
same,GI50,[40],2370 nM
same,TGI,[40],7230 nM
same,GI50,[41],690 nM
same,TGI,[41],2280 nM
same,GI50,[42],1300 nM
same,TGI,[42],3400 nM
same,GI50,[43],1970 nM
same,TGI,[43],4340 nM
same,GI50,[44],1770 nM
same,TGI,[44],3220 nM
same,GI50,[45],1670 nM
same,TGI,[45],3100 nM
same,GI50,[46],> 100000 nM
same,TGI,[46],> 100000 nM
same,GI50,[47],1120 nM
same,TGI,[47],2340 nM
same,GI50,[48],1660 nM
same,TGI,[48],3120 nM
same,GI50,[49],212 nM
same,TGI,[49],499 nM
same,GI50,[50],185 nM
same,TGI,[50],358 nM
same,GI50,[51],1780 nM
same,TGI,[51],3320 nM
same,GI50,[52],1500 nM
same,TGI,[52],2900 nM
same,GI50,[53],1860 nM
same,TGI,[53],4220 nM
same,GI50,[54],1930 nM
same,TGI,[54],4290 nM
same,GI50,[55],2520 nM
same,TGI,[55],8640 nM
